Patent US5603755A, “Preventive agent for fouling organisms” (Ihara Chemical Industry Co., Ltd., priority 1994, dated 1997)

Key:
Balanus amphitrite = assay: whole plant or invertebrate; settings: for mortality at 0.1 ppm: Amphibalanus amphitrite, read-out: Mortality rate
Procedure: The nauplii of Balanus amphitrite, hatched in a natural sea water sterilized by filtration were tamed with a diatom feed to convert them into cypris larvae (settling stage larvae). Ten of these cypris larvae and 4 ml of a natural sea water sterilized by filtration were placed in a laboratory dish having a diameter of 3 cm. 10 mg of a present agent compound was made into 1 g of an emulsion with an emulsifier consisting of cyclohexanone and Tween 80 (a trade name of Kao Atlas Co., Ltd.), and the emulsion was diluted to a given concentration of present agent compound with an artificial sea water. 1 ml of the diluted solution was added into the above laboratory dish. The laboratory dish was allowed to stand in a thermostat of 20° C. for 24 hours, and the number of dead cypris larvae was examined. This test was repeated three times, and the mortality rate of Balanus amphitrite at a given concentration of present agent compound was determined.
A test for mortality rate was conducted in the same manner as in Test 1 except that bis(tributyltin) oxide (hereinafter referred to simply as "TBTO" in some cases) was used as a test compound in place of the present agent compound.
Tests for mortality rate were conducted in the same manner as in Tests 1-10 except that the present agent compounds were changed to those shown in Table 4.
Tests for mortality rate were conducted in the same manner as in Tests 1-10 except that the present agent compounds were changed to those shown in Table 6.

in vivo = settings: rat, po

Compound N#CC(=C(O)c1ccccc1Cl)c1nc(-c2ccccc2)cs1 [Test 1] has a mortality at 0.1 ppm (Balanus amphitrite; 24 h) of 100%.
Cc1ccccc1-c1csc(C(C#N)=C(O)c2ccccc2Br)n1 [Test 3] showed a mortality at 0.1 ppm (Balanus amphitrite; 24 h) of 100%.
For CCCCS(=O)(=O)OC(=C(C#N)c1nc(-c2ccccc2)cs1)c1ccccc1Cl [Test 19], the “Mortality rate” value (Balanus amphitrite; barnacle, in vivo, 24 h) was 100%.
Cc1ccc(C(=O)OC(=C(C#N)c2nc(-c3ccccc3)cs2)c2ccccc2Cl)cc1 [Test 14] gave a Mortality rate (Balanus amphitrite; barnacle, in vivo, 24 h) of 100%.
Work on CC(=O)OC(=C(C#N)c1nc(-c2ccccc2)cs1)c1ccccc1Cl [Test 13] yielded a Mortality rate (Balanus amphitrite; barnacle, in vivo, 24 h) of 100%.
Work on CCC[CH2][Sn]([CH2]CCC)([CH2]CCC)[O][Sn]([CH2]CCC)([CH2]CCC)[CH2]CCC [TBTO, bis(tributyltin) oxide, reference compound] yielded a Mortality rate (Balanus amphitrite; 0.1 ppm, cypris larvae, 20° C., 24 hours (Table 1)) of 50%.
For N#CC(=C(OS(=O)(=O)c1ccccc1)c1ccccc1Cl)c1nc(-c2ccccc2)cs1 [Test 20], the “Mortality rate” value (Balanus amphitrite; barnacle, in vivo, 24 h) was 100%.
Compound Cc1ccccc1-c1csc(C(C#N)=C(O)c2ccccc2I)n1 [Test 4] has a mortality at 0.1 ppm (Balanus amphitrite; 24 h) of 100%.
N#CC(=C(OC(=O)c1ccccc1)c1ccccc1Cl)c1nc(-c2ccccc2)cs1 [Test 16] showed a Mortality rate (Balanus amphitrite; barnacle, in vivo, 24 h) of 100%.
Compound N#CC(=C(O)c1ccccc1Cl)c1nc(-c2ccccc2F)cs1 [Test 6] has a mortality at 0.1 ppm (Balanus amphitrite; 24 h) of 100%.
With CS(=O)(=O)OC(=C(C#N)c1nc(-c2ccccc2)cs1)c1ccccc1Cl [Test 17] the “Mortality rate” value (Balanus amphitrite; barnacle, in vivo, 24 h) was 100%.
For N#CC(C(=O)c1ccccc1Cl)=C1NC(c2ccccc2)=CS1 [3-(2-chlorophenyl)-2-(4-phenyl-2,3-dihydrothiazole-2-ylidene)-3-oxopropionitrile], the LD50 (in vivo) was at least 5000 mg/kg.
CCCCC(=O)OC(=C(C#N)c1nc(-c2ccccc2)cs1)c1ccccc1Cl [Test 15] showed a Mortality rate (Balanus amphitrite; barnacle, in vivo, 24 h) of 100%.
Compound CC(C)(C)c1csc(C(C#N)=C(O)c2ccccc2Cl)n1 [Test 2] has a mortality at 0.1 ppm (Balanus amphitrite; 24 h) of 100%.
Compound N#CC(=C(O)c1ccccc1Cl)c1nc(-c2ccccc2Cl)cs1 [Test 5] has a mortality at 0.1 ppm (Balanus amphitrite; 24 h) of 100%.
With Cc1ccc(S(=O)(=O)OC(=C(C#N)c2nc(-c3ccccc3)cs2)c2ccccc2Cl)cc1 [Test 18] the “Mortality rate” value (Balanus amphitrite; barnacle, in vivo, 24 h) was 100%.
N#CC(=C(O)c1c(F)cccc1Cl)c1nc(-c2ccccc2F)cs1 [Test 7] showed a mortality at 0.1 ppm (Balanus amphitrite; 24 h) of 100%.
